{
  "source": "paper PMC11237694",
  "about": "“Novel pentafluorosulfanyl-containing triclocarban analogs selectively kill Gram-positive bacteria” (Microbiology Spectrum, 2024)",
  "key": {"[1]": {"assay": "Eukaryotic cell toxicity, MTS assay (CC50)", "type": "cell-based", "conditions": "African green monkey, Vero cells, mean of 2 or 3 determinations, read-out: Vero (CC50) in vitro cytotoxicity", "experimental": "(§1) Five eukaryotic cell lines were used to determine the cytotoxicity of the compounds: human embryonic lung (HEL) fibroblast cells, human cervixcarinoma-derived HeLa cells, human T-cell leukemia-derived MT4 cells, MDCK cells, and African Green monkey kidney-derived VERO cells. Semi-confluent cell cultures in 96-well plates were exposed to serial dilutions of the compounds or to medium (= no compound control), then incubated at 37°C. Four days later, the cells were inspected by microscopy to determine the MCC, that is, compound concentration that causes a microscopically detectable alteration of normal cell morphology. Next, the MTS cell viability reagent (CellTiter 96 AQueous MTS Reagent from Promega) was added. After 4 hours of incubation at 37°C, OD at 490 nm was recorded in a microplate reader."}, "P. aeruginosa": {"test_system": "P. aeruginosa", "assay": "Membrane permeability, propidium iodide staining", "type": "cell-based, Pseudomonas aeruginosa", "conditions": "Gram-negative P. aeruginosa; MIC concentration, 1 hour", "experimental": "(§2) For assessing membrane permeability, PI (Invitrogen, Eugene, Oregon, USA) served as the fluorescent reporter dye. Increased PI fluorescence readings are indicative of heightened membrane disruption and permeability, as PI can penetrate cells, bind to DNA, and remain within the cells ([29], [30]). Bacteria were cultured in 3 mL of Mueller-Hinton broth (MHB) and incubated at 37°C for approximately 3 hours in a shaker incubator (150 rpm) until reaching an OD600 (optical density) of 0.08. […] All treated and control groups were incubated at 37°C for 1 hour in a shaker incubator (150 rpm). Ciprofloxacin and gentamycin were employed as internal controls, as they are known not to target the bacterial cell membrane in the initial steps. After incubation, the samples were centrifuged, washed with PBS (10,000 × g for 2 minutes), and bacteria were stained with 0.08 mM PI for 5 minutes at 21°C in the dark. Subsequently, 10 µL of samples were transferred onto slides and examined under a fluorescence microscope (Zeiss Axio Imager Z1) using the same exposure time (640 ms red and 1 s green). Densitometry analysis was conducted using Fiji software (ImageJ)."}, "MRSA": {"test_system": "MRSA", "assay": "Membrane permeability, propidium iodide staining", "type": "cell-based, methicillin-resistant S. aureus", "conditions": "Gram-positive MRSA; MIC concentration, 1 hour", "experimental": "as §2"}, "MDCK cells": {"test_system": "MDCK cells", "assay": "Eukaryotic cell toxicity, MTS assay (CC50)", "type": "cell-based, canine", "conditions": "for cytotoxicity level lower than that of EPB-34: MDCK cells; for CC50: MTS assay, 4 days, mean of 2 or 3 determinations, read-out: MDCK (CC50) in vitro cytotoxicity", "experimental": "as §1"}},
  "note": "Where two headings read alike, the source gives them in different places.",
  "data": [
    {"smiles": "O=C(Nc1ccc(Cl)cc1)Nc1cccc(S(F)(F)(F)(F)F)c1", "note": "[EBP-62, 1-(4-chlorophenyl)-3-(3-(pentafluoro-λ^6-sulfanyl)phenyl)urea]", "values": [
      {"measurement": "CC50 at 4 days", "setting": "[1]", "result": "> 4", "unit": "µM"}
    ]},
    {"smiles": "O=C(Nc1ccc(Cl)cc1)Nc1ccc(S(F)(F)(F)(F)F)cc1", "note": "[EPB-61, 1-(4-Chlorophenyl)-3-(4-(pentafluoro-λ^6-sulfanyl)phenyl)urea]", "values": [
      {"measurement": "CC50 at 4 days", "setting": "[1]", "result": "> 4", "unit": "µM"},
      {"measurement": "effect on cell membrane (PI staining)", "setting": "P. aeruginosa", "result": "no effect"},
      {"measurement": "cell membrane disruption (PI staining)", "setting": "MRSA", "result": "effective at cell membrane disruption"},
      {"measurement": "cytotoxicity level lower than that of EPB-34", "setting": "MDCK cells", "result": 2, "unit": "logs"},
      {"measurement": "CC50", "setting": "MDCK cells; listed as EBP-61", "result": "> 100", "unit": "µM"}
    ]},
    {"smiles": "O=C(Nc1ccc(S(F)(F)(F)(F)F)cc1)Nc1ccc(Cl)c(Cl)c1", "note": "[EBP-59]", "values": [
      {"measurement": "CC50 at 4 days", "setting": "[1]", "result": "> 4", "unit": "µM"},
      {"measurement": "effect on cell membrane (PI staining)", "setting": "P. aeruginosa", "result": "no effect"},
      {"measurement": "cell membrane disruption (PI staining)", "setting": "MRSA", "result": "effective at cell membrane disruption"},
      {"measurement": "cytotoxicity level lower than that of EPB-34", "setting": "MDCK cells", "result": 2, "unit": "logs"},
      {"measurement": "CC50", "setting": "MDCK cells", "result": "> 100", "unit": "µM"}
    ]}
  ]
}
